Tests used:
HDAC 3 = target: T1, HDAC 3 (Homo sapiens, UniProt O15379); test: Enzyme activity detection of histone deacetylase 3 (fluorogenic substrate deacetylation); type: biochemical; settings: 0.16 ng/μL HDAC 3, 10 μM substrate; IC50 class
T1 construct: purchased BPS Bioscience #50003
Excerpt: (§1) During the deacetylation detection of a substrate, the HDAC inhibition activity of the compound of the present invention was detected.
B: Enzyme Activity Detection of Histone Deacetylase 3 (#50003, BPS Bioscience)
(§2) Acetyl on the substrate was removed by the HDAC 3, so that the substrate was activated, and the developing liquid added subsequently could act on the substrate to release the fluorescent group. The size of the fluorescence signal reflected the activity of the HDAC 3. The IC50 detection method for this enzyme was disclosed in Chuping Xu, Elisabetta Soragni Improved Histone Deacetylase Inhibitors as Therapeutics for the Neurdegenerative Disease Friedreich's Ataxia: A New Synthetic Route. The total reaction system (100 μL/well) contained 0.16 ng/μL of HDAC 3, 10 μM of the substrate and the compound in different concentrations. The fluorescence signal was detected online at Ex/Em=360/460. The inhibition effect of the compound was determined from the obtained data, a concentration response curve was obtained by using the inhibition effect and the concentration of the compound, and the value of IC50 was fitted according to a four-parameter model.
(§3) The activities of the compounds prepared in the embodiments against the histone deacetylases 1, 3 and 6 (i.e., HDAC 1, HDAC 3 and HDAC 6) were detected by the above methods, and the test results were shown in Table 2, where the measurements of IC50 of the compounds were classified according to the following description: […]

HepG2 cells = test: Cell growth inhibition measurement (CCK-8), HepG2; type: cell-based; settings: Homo sapiens, HepG2, 72 h, highest EC50 measured during one or multiple operations, read-out: Inhibition activity against cancer cells, HepG2 (EC50)
Excerpt: (§4) A HepG2 cell strain and an HCT-116 cell strain were purchased from Shanghai Institutes for Biological Sciences; a DMEM high-sugar culture medium and an MEM culture medium were purchased from Hyclone; fetal calf serum was purchased from Gibco; trypsin was purchased from Invitrogen Shanghai; a CCK-8 kit was purchased from Beyotime Institute of Biotechnology; and, the remaining cell culture mediums and other consumables were purchased from Corning China.
(§5) HepG2 cells and HCT-116 cells in the logarithmic growth phase were digested by trypsin. After the counting of uniform cell suspension, the cell density was adjusted as 1500 cells/well by a culture medium containing 10% serum. The cells were re-inoculated to a 96-well cell culture plate, and cultured to a volume of 200 μL at 37° C. in an incubator containing 5% CO2. The cells could be tested after being cultured for 24 h.
(§6) The cells cultured for 24 h were taken out from the incubator. The culture liquid in the well plate was sucked out, and 200 μL of compound solution prepared in the culture medium containing 10% fetal calf serum was added in each well. Five parallel mediums were provided for each concentration, and a DMSO culture medium was used as negative control. The culture mediums were cultured for 72 h at 37° C. in an incubator containing 5% CO2, and CCK-8 detection was performed.
(§7) A serum-free culture medium and CCK-8 solution were prepared, and CCK-8 working solution was prepared at a ratio of 10:1 (this process should be performed in dark place).
(§8) The cells cultured for 72 h were taken out from the incubator. The culture liquid in the well plate was sucked out, and 120 μL of the CCK-8 working solution was added in each well. A well plate without cells was also added with 120 μL of the CCK-8 working solution to serve as blank control. The well plates were cultured for 1 h at 37° C. in an incubator containing 5% CO2 (this process should be performed in dark place).
(§9) The well plates were taken out from the incubator, 100 μL of solution in each well was sucked out and added in a new 96-well plate, and the absorbance was measured at 450 nm (this process should be performed in dark place).
(§10) where Tx is the absorbance of the CCK-8 after the compound acts for 72 h;
(§11) C is the absorbance of the CCK-8 after the negative control wells are cultured for 72 h; and
(§12) B is the absorbance of the CCK-8 in the blank control wells.
(§13) The test results of the compounds prepared according to the embodiments during the measurement are shown in Table 3, wherein the measured highest EC50 of the compounds during one operation or multiple operations is classified according to the following description: […]

HDAC 6 = target: T2, HDAC 6 (Homo sapiens, UniProt Q9UBN7); test: Enzyme activity detection of histone deacetylase 6 (fluorogenic substrate deacetylation); type: biochemical; settings: 0.35 ng/μL HDAC 6, 20 μM substrate, 30 min at 37° C.; IC50 class
T2 construct: purchased BPS Bioscience #50076
T2 sequence (Q9UBN7 1-1215): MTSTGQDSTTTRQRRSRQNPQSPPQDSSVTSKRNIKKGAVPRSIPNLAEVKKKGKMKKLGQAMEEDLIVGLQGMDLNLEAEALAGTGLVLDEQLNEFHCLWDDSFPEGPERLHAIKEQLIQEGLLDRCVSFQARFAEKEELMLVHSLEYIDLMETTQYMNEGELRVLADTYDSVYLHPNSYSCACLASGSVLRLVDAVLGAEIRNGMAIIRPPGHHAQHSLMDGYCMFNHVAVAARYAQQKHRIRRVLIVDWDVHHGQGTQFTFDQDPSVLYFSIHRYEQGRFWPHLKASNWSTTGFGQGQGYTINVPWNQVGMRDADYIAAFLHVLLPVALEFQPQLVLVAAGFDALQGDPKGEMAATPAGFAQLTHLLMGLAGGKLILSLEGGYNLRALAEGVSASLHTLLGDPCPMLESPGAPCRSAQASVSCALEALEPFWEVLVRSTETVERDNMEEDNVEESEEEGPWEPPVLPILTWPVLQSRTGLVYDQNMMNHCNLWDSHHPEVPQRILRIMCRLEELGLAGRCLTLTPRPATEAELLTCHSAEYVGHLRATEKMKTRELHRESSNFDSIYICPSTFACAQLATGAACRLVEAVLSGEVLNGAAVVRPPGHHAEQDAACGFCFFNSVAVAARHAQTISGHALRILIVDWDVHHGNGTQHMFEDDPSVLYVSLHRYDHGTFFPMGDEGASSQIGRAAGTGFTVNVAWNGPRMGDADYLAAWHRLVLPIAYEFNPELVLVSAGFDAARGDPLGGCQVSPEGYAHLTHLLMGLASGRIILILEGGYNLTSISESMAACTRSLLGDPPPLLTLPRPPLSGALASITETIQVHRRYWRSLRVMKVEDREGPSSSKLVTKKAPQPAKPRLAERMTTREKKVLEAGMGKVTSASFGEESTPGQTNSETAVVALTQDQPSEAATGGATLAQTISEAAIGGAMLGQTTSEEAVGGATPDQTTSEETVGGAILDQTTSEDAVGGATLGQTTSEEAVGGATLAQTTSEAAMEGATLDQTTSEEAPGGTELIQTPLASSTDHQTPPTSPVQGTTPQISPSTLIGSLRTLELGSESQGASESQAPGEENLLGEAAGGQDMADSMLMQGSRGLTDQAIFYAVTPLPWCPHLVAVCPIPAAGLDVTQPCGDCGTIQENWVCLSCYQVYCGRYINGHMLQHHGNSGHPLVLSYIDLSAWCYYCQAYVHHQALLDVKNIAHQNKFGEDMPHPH
Excerpt: as §1
A: Enzyme Activity Detection of Histone Deacetylase 6 (#50076, BPS Bioscience)
Acetyl on the substrate was removed by the HDAC 6, so that the substrate was activated, and the developing liquid added subsequently could act on the substrate to release the fluorescent group. The size of the fluorescence signal reflected the activity of the HDAC 6. The IC50 detection method for this enzyme was disclosed in Chuping Xu, Elisabetta Soragni Improved Histone Deacetylase Inhibitors as Therapeutics for the Neurdegenerative Disease Friedreich's Ataxia: A New Synthetic Route. The total reaction system (100 μL/well) contained 0.35 ng/μL of HDAC 6, 20 μM of the substrate and the compound in different concentrations. The reaction system was incubated for 30 min at 37° C., and the fluorescence signal was then measured. The inhibition effect of the compound was determined from the obtained data, a concentration response curve was obtained by using the inhibition effect and the concentration of the compound, and the value of IC50 was fitted according to a four-parameter model.
as §3

HDAC 1 = HDAC 1 (Homo sapiens, UniProt Q13547); test: Enzyme activity detection of histone deacetylase 1 (fluorogenic substrate deacetylation); type: biochemical; settings: 0.28 ng/μL HDAC 1, 10 μM substrate; IC50 class
Chain of HDAC 1 (Q13547 whole entry, species assumed): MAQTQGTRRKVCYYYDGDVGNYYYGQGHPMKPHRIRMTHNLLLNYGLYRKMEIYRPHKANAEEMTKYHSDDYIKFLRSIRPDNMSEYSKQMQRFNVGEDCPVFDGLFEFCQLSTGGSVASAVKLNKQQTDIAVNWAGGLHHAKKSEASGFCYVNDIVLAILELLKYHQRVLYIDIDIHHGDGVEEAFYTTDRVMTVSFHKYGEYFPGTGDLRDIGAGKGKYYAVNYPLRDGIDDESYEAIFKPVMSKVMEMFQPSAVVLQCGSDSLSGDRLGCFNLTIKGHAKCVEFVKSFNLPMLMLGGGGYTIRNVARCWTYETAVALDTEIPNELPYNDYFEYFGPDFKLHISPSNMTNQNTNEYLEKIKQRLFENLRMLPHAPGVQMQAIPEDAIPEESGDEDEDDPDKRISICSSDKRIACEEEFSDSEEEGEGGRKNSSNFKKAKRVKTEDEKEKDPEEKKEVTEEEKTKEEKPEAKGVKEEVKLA
Excerpt: as §1
C: Enzyme Activity Detection of Histone Deacetylase 1
as §2, with “1,” for “3,”, “1.” for “3.”, “0.28” for “0.16”
as §3

HCT-116 cells = test: Cell growth inhibition measurement (CCK-8), HCT-116; type: cell-based; settings: Homo sapiens, HCT-116, 72 h, highest EC50 measured during one or multiple operations, read-out: Inhibition activity against cancer cells, HCT-116 (EC50)
Excerpt: as §4, §5, §6, §7, §8, §9, §10, §11, §12, §13

T1 sequence (O15379 whole entry): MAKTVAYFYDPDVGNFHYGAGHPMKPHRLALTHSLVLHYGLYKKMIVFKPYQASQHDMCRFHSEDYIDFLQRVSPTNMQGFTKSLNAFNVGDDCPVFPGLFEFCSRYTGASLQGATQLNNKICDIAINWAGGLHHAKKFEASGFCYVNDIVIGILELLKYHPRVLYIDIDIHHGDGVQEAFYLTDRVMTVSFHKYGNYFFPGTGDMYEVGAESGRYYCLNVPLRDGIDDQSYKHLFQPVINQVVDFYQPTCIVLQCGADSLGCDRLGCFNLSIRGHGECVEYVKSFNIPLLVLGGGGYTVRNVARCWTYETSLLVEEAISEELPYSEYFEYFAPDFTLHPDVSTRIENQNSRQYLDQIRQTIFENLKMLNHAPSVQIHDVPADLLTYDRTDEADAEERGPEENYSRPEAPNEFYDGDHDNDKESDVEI
T1 sequence (Q9Y618 395-489 partner limits assumed): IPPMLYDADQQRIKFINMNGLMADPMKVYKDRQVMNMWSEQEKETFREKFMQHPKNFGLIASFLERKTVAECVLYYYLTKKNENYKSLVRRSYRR

| IC50 (HDAC 3) [nM] | EC50 (HepG2 cells) [nM] | IC50 (HDAC 6) [nM] | IC50 (HDAC 1) [nM] | EC50 (HCT-116 cells) [nM] | Compound |
| --- | --- | --- | --- | --- | --- |
| 100 to 500 | < 100 | < 100 | – | – | O=C(NO)C1=CCN(S(=O)(=O)c2ccc(-c3ccc(O)cc3)cc2)CC1 [Compound 2, N-hydroxyl-1-((4′-hydroxyl-[1,1′-biphenyl]-4-yl)sulfonyl)-1,2,3,6-tetrahydropyridine-4-formamide] |
| 100 to 500 | > 100 | < 100 | – | – | O=C(NO)C1=CCN(S(=O)(=O)c2ccc(-c3cnn(C4CCNCC4)c3)cc2)CC1 [Compound 1, N-hydroxyl-1-((4-(1-(piperidine-4-yl)-1H-pyrazol-4-yl)phenyl)sulfonyl)-1,2,3,6-tetrahydropyridine-4-formamide] |
| – | < 100 | < 100 | < 100 | < 100 | O=C(NO)C1=CCN(S(=O)(=O)c2ccc(-c3ccc(CN4CCCCC4)cc3)cc2)CC1 [Compound 19, N-hydroxyl-1-((4′-(piperidine-1-ylmethyl)-[1,1′-biphenyl]-4-yl)sulfonyl)-1,2,3,6-tetrahydropyridine-4-formamide] |
| 100 to 500 | > 100 | < 100 | 100 to 500 | – | CN1CCN(c2ccc(-c3ccc(S(=O)(=O)N4CCC=C(C(=O)NO)CC4)cc3)cc2)CC1 [Compound 44, N-hydroxyl-1-((4′-(4-methylpiperazine-1-yl)-[1,1′-biphenyl]-4-yl)sulfonyl)-2,3,6,7-tetrahydro-1H-aza-4-formamide] |

— patent publication US11149008B2, “Sulfamide derivatives and preparation method and use thereof” (HitGen Ltd., priority 2015, dated 2021)
